From US20130303486A1, “Compositions Comprising Zoledronic Acid or Related Compounds for Relieving Pain Associated with Arthritis” (priority 2012, published 2013)
Read-outs that look alike come from different tables or passages of the source.

Key:
[1] = test system: inflammatory pain (mechanical hyperalgesia), CFA-injected hind paw; format: in vivo, Sprague-Dawley rats
Experimental: The effect of orally administered zoledronic acid on inflammatory pain was examined using the rat complete Freund's adjuvant (CFA) model. Inflammatory pain was induced by injection of 100% CFA in a 75 μL volume into the left hind paws of Sprague-Dawley rats on day 0, followed by assessments on days 1-3. Animals were orally administered vehicle (control), zoledronic acid 18 mg/m^2 (or 3 mg/kg), zoledronic acid 120 mg/m^2 (or 20 mg/kg), or zoledronic acid 900 mg/m^2 (or 150 mg/kg) daily on days 1-3. Drug was dissolved in distilled water and prepared fresh daily. Animals were fasted prior to dosing. Under current FDA guidelines for extrapolating starting dosages from animals to humans, dosages expressed in mg/m^2 are considered equivalent between mammalian species. Thus, for example, 18 mg/m^2 in a rat is considered equivalent to 18 mg/m^2 in a human being, while 3 mg/kg in a rat may not be equivalent to 3 mg/kg in a human being.
Values for inflammatory pain (mechanical hyperalgesia) in the vehicle and drug-treated animals were obtained on day 0 prior to CFA injection, and at baseline and post-treatment on days 1-3. Pain was assessed using a digital Randall-Selitto device (dRS; IITC Life Sciences, Woodland Hills, Calif.). Animals were placed in a restraint sling that suspended the animal, leaving the hind limbs available for testing. Paw compression threshold was measured by applying increasing pressure to the plantar surface of the hind paw with a dome-shaped tip placed between the 3rd and 4th metatarsus. Pressure was applied gradually over approximately 10 seconds. Measurements were taken from the first observed nocifensive behavior of vocalization, struggle or withdrawal. A cut-off value of 300 g was used to prevent injury to the animal.
Reversal of inflammatory pain was calculated according to the formula:
% reversal=(Post-treatment−Post-CFA baseline)/(Pre-CFA baseline−Post-CFA baseline)×100.
The experiment was carried out using 9-10 animals per group.

[2] = test system: complex regional pain syndrome (CRPS), fracture hindpaw; assay: rat tibia fracture model of complex regional pain syndrome (CRPS): von Frey, weight bearing, edema, warmth; format: in vivo; conditions: oral 18 mg/m^2/day (3 mg/kg/day) for 28 days
Experimental: The effect of orally administered zoledronic acid was examined in the rat tibia fracture model of complex regional pain syndrome (CRPS). CRPS was induced in the rats by fracturing the right distal tibias of the animals and casting the fractured hindpaws for 4 weeks, as described in Guo T Z et al. (Pain. 2004; 108:95-107).
Animals were orally administered either vehicle (control) or zoledronic acid, in a dosage of 18 mg/m^2/day (3 mg/kg/day) for 28 days, starting on the day of fracture and casting. Drug was dissolved in distilled water and administered by gavage. Animals were fasted for 4 hours before and 2 hours after dosing. At the end of the 28-day period, casts were removed, and on the following day, the rats were tested for hindpaw pain, edema, and warmth.
Pain was assessed by measuring hyperalgesia, and weight bearing. […]
An incapacitance device (IITC Inc. Life Science, Woodland, Calif., USA) was used to measure hindpaw weight bearing, a postural effect of pain. […] Eight readings (excluding the highest and lowest ones) were averaged to calculate the bilateral hindpaw weight-bearing values. Weight bearing data were analyzed as the ratio between right (fracture) and left hindpaw weight bearing values ((2R/(R+L))×100%). […]
The temperature of the hindpaw was measured using a fine wire thermocouple (Omega, Stanford, Conn., USA) applied to the paw skin. […]

O=P(O)(O)C(O)(Cn1ccnc1)P(=O)(O)O [zoledronic acid]
paw compression thresholds compared to vehicle ([1]; oral 18 mg/m^2, entire measurement period after 30 minutes from start of treatment): higher than for vehicle | paw compression thresholds compared to vehicle ([1]; oral 120 mg/m^2 (20 mg/kg) daily days 1-3, all time points): approximately equal or inferior to vehicle | toxicity ([1]; oral 900 mg/m^2 (150 mg/kg) daily days 1-3, all animals euthanized two days after cessation of dosing): significant toxicity | paw compression thresholds compared to vehicle ([1]; oral 900 mg/m^2, day three): greater than for vehicle | paw compression thresholds compared to vehicle ([1]; oral 900 mg/m^2, first two days of dosing): lower than vehicle | reversal of fracture induced pain (von Frey pain threshold) as compared to vehicle [2]: 77%
